According to US20210254069A1, “COMBINATION THERAPIES COMPRISING C/EBP ALPHA SARNA” (MiNA THERAPEUTICS LIMITED, priority 2018, published 2021):
In the oligonucleotide strings, read from the 5' end, every base follows the letter of its sugar. An asterisk marks phosphorothioate; unmarked linkages are phosphodiester. Other units and linkages are bracketed, terminal groups are in braces. A string of capitals states the bases alone. [invAb] = inverted abasic unit; d = 2'-deoxy (DNA); m = 2'-O-methyl; r = 2'-OH (RNA)

Assays:
Hep3B cells [1] = assay: WST1 growth assay, CEBPA-51 with FGFR4 antibody; assay type: cell-based; details: oligo 10 nM, FGFR4 antibody where applicable, Mock, no antibody = 1.00
Procedure: (§1) HepB3 cells were seeded at 1×10^4 cells/well in a 96 well plate, reverse transfected with oligo at seeding and forward transfected 24 hours later. WST cell viability assay was performed as according to the manufactures' instructions (with 24 hr WST incubation). The WST alone signal has been subtracted from the cell-WST signal.
(§2) In another study, Hep3B cells were seeded at 1.0×10^5 cells/well in a 24 well plate in the presence of 30 ug/ml anti-human FGFR4 therapeutic antibody (XPA.48.056; Creative Biolabs) as applicable. Cells were transfected with either 10 nM CEBPA-51 saRNA, 10 nM Control oligo (NC) or transfection agent alone (Mock) at seeding and this was repeated 24 hours post- seeding and culture medium changed at 48 hours. FGFR antibody treatment was maintained throughout the experiment. Cells were harvested for RNA collection 72 hours post-seeding qRT-PCR analysis.
Treatment of Hep3B cells with FGFR4 antibody reduced cell viability. Combination treatment of both FGFR4 antibody and CEPBA-51 further reduced cell viability as monitored by WST1 growth assay (Table 9A, 96 hours; Table 9B, 120 hours).

CEBPA-mRNA = assay: qRT-PCR of CEBPA mRNA, CEBPA-51 with FGFR4 antibody; assay type: cell-based; details: Hep3B; oligo 10 nM, anti-human FGFR4 antibody 30 ug/ml where applicable; 72 hours post-seeding; Mock, no antibody = 1.00
Procedure: RNA was isolated from cultured cells using the RNeasy Mini Kit (QIAGEN). RNA was quantitated using a Qiaxpert (Qiagen), and reverse transcribed using the Quantitect Reverse Transcription Kit (QIAGEN). Relative expression levels were determined by qPCR using Quantifast SYBR Green Master Mix (QIAGEN) on a Quantstudio 5 (Qiagen). The following Quantitect Primer Assays (QIAGEN) were used: CEBPA_1_SG, FGFR4_1_SG and GAPDH_1_SG. Relative expression was determined the DDCt method normalized to GAPDH expression.
as §2

HCC [2] = details: single agent, published Phase III; cited from earlier work
[3] = tested on: Nexavar resistant BNL tumour; assay: Sorafenib-resistant BNL subcutaneous tumour model; assay type: in vivo, mouse; details: after 3 weeks; MTL-CEBPA 4.2 mg/kg IV d1, d3, d5; anti-PD1 250 ug IP d1, d3, d5; Sorafenib 30 mg/kg PO daily
Procedure: Cell Culture: The mouse hepatocellular carcinoma cell line BNL was maintained in Dulbecco's modified Eagle's medium (DMEM, Gibco by Invitrogen) with […] G418 (Merck, Germany), 1% antibiotic antimycotic (Gibco by Invitrogen) and 10% fetal bovine serum (Gibco by Invitrogen) and cultured at 37° C. in a humidified atmosphere.
Tumour Inoculation and Experimental design: Each BALB/c mice were injected subcutaneously (s.c.) on the flank with 3×10^5 BNL-Luc cells in 0.05 ml of PBS. After inoculation for 3 weeks, Nexavar® (Sorafenib) was orally administered every day for two weeks (30 mg/kg/day).
The selected animals were randomized into the 7 treatment groups (Table 18).
60 mice were injected with 3×10^5 of BNL-Luc cells in […] mixture of PBS. After 3 weeks, the mice were dosed with 30 mg/kg of Sorafenib p.o. every day for 2 weeks. […] The 7 groups included PBS as Control group [PBS]; MTL-CEBPA [C], ([…], I.V., d1, d3, d5); anti-PD1 antibody [P] (250 ug, I.P., d1, d3, d5); Nexavar® (Sorafenib) [N] (30 mg/kg, P.O. daily); MTL-CEBPA+anti-PD1 [C+P]; MTL-CEBPA+Nexavar® (Sorafenib) [C+N] and MTL-CEBPA+anti-PD1+Nexavar® (Sorafenib) [C+P+N].

HCC rat DEN model = assay: DEN rat HCC model, tumour volume; assay type: in vivo; details: DEN rats; treated 3x/week for 2 weeks (MTL-CEBPA i.v.; sorafenib P.O. 10 mg/kg); sacrifice day 15; PBS 644.7
Procedure: (§3) Male Wistar rats (150-180 g) at 7 weeks of age were obtained from the Animal Center of National Taiwan University. The rats were housed in standard conditions, and all the experiments were conducted in accordance with the “Guide for the Care and Use of Laboratory Animals” prepared by the Institutional Animal Care and Use Committee of National Taiwan University. The rats were given DEN solution daily (Sigma, St Louis, Mo.) as the sole source of drinking water for 6 weeks, followed by 3 weeks of regular water. The DEN solution feeding started with 100 ppm in the first week. The average bodyweight (BW) of the animals was measured once a week per group of five rats, and the concentration of DEN in their drinking water was adjusted in proportion to the BW each week relative to that of the first week. […]
On 15th day after treatment, the animals were sacrificed and tumour size and tumour/liver weight were measured. The body, liver, lung, and spleen were weighed, and the aspects of all organs were recorded. After the animals were sacrificed, all liver lobes were promptly removed and weighed, and the diameters of all of the macroscopically visible nodules on the liver surface and in the 5-mm sliced sections were measured. Tumour burden was determined in terms of two criteria: the ratio of liver weight/BW, and the total volume of all the tumour nodules with diameter >3 mm. […]

alpha-fetoprotein (AFP) = assay: DEN rat HCC model, serum alpha-fetoprotein; assay type: in vivo; details: DEN rats, 2 weeks dosing, PBS 27
Procedure: as §3
The serum levels of ALT, AST and total bilirubin were measured with VITROS 5.1 FS Chemistry Systems (Ortho-Clinical Diagnostics, Inc.). The serum level of rat alpha-fetoprotein was evaluated with anti-Rat AFP ELISA Kit (USCN life company/China), following the instructions of the manufacturer.
Serum levels of alpha-fetoprotein (AFP) were measured before treatment and compared to measurement after treatment and represented as ‘AFP change’ (mg/dl). Serum AFP change was measured in each group. […]

advanced HCC = details: cited from earlier work
HCC [4] = details: CHECKMATE-040 subgroup, cited from earlier work
Hep3B cells [5] = assay: WST-1 growth assay, siFGFR4 / CEBPA-51; assay type: cell-based; details: 20 nM, Mock = 1.00
Procedure: HepB3 cells were grown in DMEM supplemented with 10% fetal bovine serum (FBS), 2 mM L-glutamine, and penicillin/streptomycin in a 5% CO2 incubator. Transfections were performed using 2 μL of Lipofectamine 2000 (Life Technologies) per well in 24 well plate.
as §1

**Q.** With “CEBPA-51: saRNA duplex that upregulates C/EBPa; antisense SEQ ID No. 1, sense SEQ ID No. 2 (sense GCGGUCAUUGUCACUGGUCUU; antisense GACCAGUGACAAUGACCGCUU; sense: sugars from the 5' end mmrmrrrrrmrrrmrrrrrmm, [invAb] at 5' end, backbone not given here; antisense: sugars from the 5' end r19 m2, backbone not given here; further chemistry not fully specified)” as the compound, how does the Normalized cell viability (Hep3B cells [1]; 96 hours after treatment) read?
**A.** The Normalized cell viability was 0.32.

**Q.** And the Normalized cell viability (Hep3B cells [1]; 120 hours after treatment)?
**A.** Its Normalized cell viability is 0.25.

**Q.** And the CEBPA-mRNA relative expression (CEBPA-mRNA)?
**A.** The CEBPA-mRNA relative expression was 1.31.

**Q.** Which “complete responses, share of patients” value (HCC [2]) does the source give for `CNC(=O)c1cc(Oc2ccc(NC(=O)Nc3ccc(Cl)c(C(F)(F)F)c3)cc2)ccn1` [Sorafenib] here?
**A.** The value was 0%.

**Q.** What about the “partial responses, share of patients” value (HCC [2]) of the same compound?
**A.** The value was 2%.

**Q.** And the “reduction in tumour volume” value [3]?
**A.** The value was “no effect”.

**Q.** What about the “reduction in tumour weight” value [3] of the same compound?
**A.** Its value is “no effect”.

**Q.** And the “Tumor volume, Mean” value (HCC rat DEN model)?
**A.** The value was 299.5 mm^3.

**Q.** And the “AFP change (pre-treatment vs post-treatment), Mean” value (alpha-fetoprotein (AFP))?
**A.** The value was -36.83 mg/dL.

**Q.** And the “decrease in the risk of death” value (advanced HCC; patients with advanced HCC)?
**A.** The value was 31%.

**Q.** And the median survival (advanced HCC; patients with advanced disease, placebo 7.9 months)?
**A.** Its median survival is 10.7 months.

**Q.** What does the source list for Nivolumab: PD-1 inhibitor, Human IgG?
**A.** responders with responses lasting 6 months or longer (HCC [4]): 91%; responders with responses lasting 12 months or longer (HCC [4]): 55%; overall response rate (HCC [4]; HCC patients, 95% CI: 9.2, 20.8): 14.3%; complete responses (HCC [4]; HCC patients): 3; partial responses (HCC [4]; HCC patients): 19

**Q.** For `COc1cc2nccc(Oc3ccc(NC(=O)NC4CC4)c(Cl)c3)c2cc1C(N)=O` [lenvatinib], which “partial responses, share of patients” value (HCC [2]) is on record?
**A.** Its value is 24%.

**Q.** With “NC: Negative control oligonucleotide siFLUC, SEQ ID NO: 6 and 7 (chain 1 rCmUmUrAmCrGmCmUrGrArGmUrAmCmUmUmCrGrAdT*dT; chain 2 rUrCrGrArArGmUrArCrUmCrArGrCrGmUrArArGdT*dT)” as the compound, how does the Normalized cell viability (Hep3B cells [1]; 96 hours after treatment) read?
**A.** The Normalized cell viability was 0.48.

**Q.** What about the Normalized cell viability (Hep3B cells [1]; 120 hours after treatment) of the same compound?
**A.** Its Normalized cell viability is 0.59.

**Q.** And the CEBPA-mRNA relative expression (CEBPA-mRNA)?
**A.** Its CEBPA-mRNA relative expression is 0.89.

**Q.** What about the Normalized cell viability (Hep3B cells [5]; 96 hours after treatment) of the same compound?
**A.** The Normalized cell viability was 0.62.

**Q.** And the Normalized cell viability (Hep3B cells [5]; 120 hours after treatment)?
**A.** The Normalized cell viability was 0.70.
